Data as given in ChEMBL document CHEMBL3627630, “Fragment-based discovery of potent ERK2 pyrrolopyrazine inhibitors” (Bioorg Med Chem Lett, 2015).

Each compound was assayed against T1, Mitogen-activated protein kinase 1 (Homo sapiens, UniProt P28482) (assay: Inhibition of human recombinant ERK2 expressed in Escherichia coli using Omnia peptide S/T17 as substrate measured every 50 seconds for 30 mins).
T1 sequence (P28482 whole entry): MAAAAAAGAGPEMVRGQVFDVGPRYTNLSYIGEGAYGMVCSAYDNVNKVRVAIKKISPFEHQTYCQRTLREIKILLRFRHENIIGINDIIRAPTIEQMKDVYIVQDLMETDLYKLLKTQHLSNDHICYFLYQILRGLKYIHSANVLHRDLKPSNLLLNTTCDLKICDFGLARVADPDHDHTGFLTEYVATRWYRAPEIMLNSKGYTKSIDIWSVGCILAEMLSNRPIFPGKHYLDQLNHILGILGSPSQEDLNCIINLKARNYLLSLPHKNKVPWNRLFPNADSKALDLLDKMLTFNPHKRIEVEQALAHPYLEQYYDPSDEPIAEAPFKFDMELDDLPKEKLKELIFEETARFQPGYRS

**Q.** Which IC50 does the source give for Cn1cc(-c2c[nH]c3ncc(-c4ccncc4)nc23)cn1 here?
**A.** 0.072 µM

Each compound was assayed against T1, Mitogen-activated protein kinase 1 (assay: Binding affinity to ERK2 (unknown origin) by surface plasmon resonance assay).

**Q.** Brc1cnc2[nH]cc(I)c2n1 was tested. Which Kd did it give?
**A.** 125 µM

**Q.** How did the Kd turn out when c1cnc2[nH]ccc2n1 was run?
**A.** 343 µM

**Q.** Brc1cnc2[nH]ccc2n1 was tested. Which Kd did it give?
**A.** 319 µM

**Q.** How did the Kd turn out when Brc1c[nH]c2nccnc12 was run?
**A.** 97 µM

**Q.** How did the Kd turn out when c1ccc(CNc2ncnc3nc[nH]c23)cc1 [6-BENZYLAMINOPURINE] was run?
**A.** 247 µM

What follows are compounds tested against T1, Mitogen-activated protein kinase 1 (assay: Inhibition of ERK2 (unknown origin) using 5FAM-IPTSPITTTYFFFKKK as substrate after 1 hr by LC3K assay).

**Q.** Which IC50 does the source give for Brc1cnc2[nH]ccc2n1 here?
**A.** > 200 µM

**Q.** How did the IC50 turn out when c1ccc(-c2cnc3[nH]ccc3n2)cc1 was run?
**A.** 50.1 µM

**Q.** With NC(=O)c1cccc(-c2cnc3[nH]ccc3n2)c1 as the compound, how does the IC50 read?
**A.** > 200 µM

**Q.** Which IC50 does the source give for Oc1cccc(-c2cnc3[nH]ccc3n2)c1 here?
**A.** > 200 µM

**Q.** With NC(=O)c1ccc(-c2cnc3[nH]ccc3n2)cc1 as the compound, how does the IC50 read?
**A.** 44.1 µM

**Q.** How did the IC50 turn out when COc1ccc(-c2cnc3[nH]ccc3n2)cc1 was run?
**A.** 89.7 µM

**Q.** Which IC50 does the source give for Fc1ccc(-c2cnc3[nH]ccc3n2)cc1 here?
**A.** 29.7 µM

**Q.** With Oc1ccc(-c2cnc3[nH]ccc3n2)cc1 as the compound, how does the IC50 read?
**A.** 12.4 µM

**Q.** How did the IC50 turn out when c1cc(-c2cnc3[nH]ccc3n2)ccn1 was run?
**A.** 11.7 µM

**Q.** Which IC50 does the source give for Fc1cc(-c2cnc3[nH]ccc3n2)ccn1 here?
**A.** 21.6 µM

**Q.** Which IC50 does the source give for c1cncc(-c2cnc3[nH]ccc3n2)c1 here?
**A.** 71.5 µM

**Q.** For c1cc2nc(-c3cn[nH]c3)cnc2[nH]1, which IC50 is on record?
**A.** 5.9 µM

**Q.** With Cn1cc(-c2cnc3[nH]ccc3n2)cn1 as the compound, how does the IC50 read?
**A.** 22.5 µM

**Q.** Which IC50 does the source give for Cc1n[nH]c(C)c1-c1cnc2[nH]ccc2n1 here?
**A.** 14 µM

**Q.** Cc1n[nH]cc1-c1cnc2[nH]ccc2n1 was tested. Which IC50 did it give?
**A.** 22.2 µM

**Q.** With c1cc2nc(-c3ccc4cn[nH]c4c3)cnc2[nH]1 as the compound, how does the IC50 read?
**A.** 31.9 µM

**Q.** c1cncc(-c2cnc3[nH]cc(-c4cccnc4)c3n2)c1 was tested. Which IC50 did it give?
**A.** 0.407 µM

**Q.** c1cc(-c2cnc3[nH]cc(-c4cncnc4)c3n2)ccn1 was tested. Which IC50 did it give?
**A.** 2.2 µM

**Q.** How did the IC50 turn out when c1cncc(-c2c[nH]c3ncc(-c4cn[nH]c4)nc23)c1 was run?
**A.** 0.28 µM

**Q.** How did the IC50 turn out when c1ncc(-c2c[nH]c3ncc(-c4cn[nH]c4)nc23)cn1 was run?
**A.** 1.05 µM

**Q.** How did the IC50 turn out when COc1ccc(-c2c[nH]c3ncc(-c4ccncc4)nc23)cn1 was run?
**A.** 0.252 µM

**Q.** How did the IC50 turn out when Nc1ccc(-c2c[nH]c3ncc(-c4ccncc4)nc23)cn1 was run?
**A.** 0.468 µM

**Q.** How did the IC50 turn out when Cc1ccc(-c2c[nH]c3ncc(-c4ccncc4)nc23)cn1 was run?
**A.** 0.634 µM

**Q.** Clc1ccc(-c2c[nH]c3ncc(-c4ccncc4)nc23)cn1 was tested. Which IC50 did it give?
**A.** 0.182 µM

**Q.** For c1cc(-c2cnc3[nH]cc(-c4ccn[nH]4)c3n2)ccn1, which IC50 is on record?
**A.** 0.94 µM

**Q.** Which IC50 does the source give for c1cc(-c2cnc3[nH]cc(-c4cn[nH]c4)c3n2)ccn1 here?
**A.** 0.354 µM

**Q.** With CCn1cc(-c2c[nH]c3ncc(-c4ccncc4)nc23)cn1 as the compound, how does the IC50 read?
**A.** 0.149 µM

**Q.** Which IC50 does the source give for CCCn1cc(-c2c[nH]c3ncc(-c4ccncc4)nc23)cn1 here?
**A.** 0.071 µM

**Q.** CC(C)Cn1cc(-c2c[nH]c3ncc(-c4ccncc4)nc23)cn1 was tested. Which IC50 did it give?
**A.** 0.091 µM

**Q.** With OCCCn1cc(-c2c[nH]c3ncc(-c4ccncc4)nc23)cn1 as the compound, how does the IC50 read?
**A.** 0.623 µM

**Q.** c1cc(-c2cnc3[nH]cc(-c4cnn(CCN5CCOCC5)c4)c3n2)ccn1 was tested. Which IC50 did it give?
**A.** 0.416 µM

**Q.** How did the IC50 turn out when c1ccc(CCn2cc(-c3c[nH]c4ncc(-c5ccncc5)nc34)cn2)cc1 was run?
**A.** 2 µM

**Q.** For c1ccc(Cn2cc(-c3c[nH]c4ncc(-c5ccncc5)nc34)cn2)cc1, which IC50 is on record?
**A.** 0.037 µM
